Assay results published in patent publication US20210253562A1, “ACYLSUFONAMIDE COMPOUNDS USEFUL AS EP3 RECEPTOR ANTAGONISTS” (Janssen Pharmaceutica NV, priority 2018, published 2021).
Where two headings read alike, the source gives them in different places.

Tests used:
[1] = target: T1, EP3 membrane (EP3 receptor) (Homo sapiens, UniProt P43115); assay: [3H]-PGE2 binding; EP3 competition binding (SPA)
T1 construct: purchased Millipore HTS092M
T1 sequence (P43115 1-390): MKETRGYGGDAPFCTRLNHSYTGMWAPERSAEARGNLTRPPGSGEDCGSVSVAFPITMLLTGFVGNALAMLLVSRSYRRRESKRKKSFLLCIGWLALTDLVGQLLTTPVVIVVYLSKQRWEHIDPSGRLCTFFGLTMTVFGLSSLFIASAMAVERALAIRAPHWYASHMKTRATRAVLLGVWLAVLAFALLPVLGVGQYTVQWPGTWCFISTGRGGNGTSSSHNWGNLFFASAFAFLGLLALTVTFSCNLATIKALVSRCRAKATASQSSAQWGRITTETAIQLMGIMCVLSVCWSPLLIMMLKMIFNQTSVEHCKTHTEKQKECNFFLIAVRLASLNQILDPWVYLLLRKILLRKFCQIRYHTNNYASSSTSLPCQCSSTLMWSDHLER
How it was run: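 SPA competition at room temperature, 2 h: EP3 membranes 2 μg/well, 2 nM [3H]-PGE2, 0.1% DMSO, in Tris/MgCl2/EDTA buffer pH 7.4. Compounds in 1:3 serial dilution; scintillation read; Ki by one-site nonlinear fit.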

[2] = target: T2, CHO cells over-expressing the EP3 receptor (Homo sapiens, UniProt P43115); assay: CHO cell cAMP assay; EP3 cAMP antagonist dose response (sulprostone reference), HTRF; assay type: cell-based; details: sulprostone 700 nM (EC80) and FSK 2 μM (EC70); read-out: CHO_cAMP IC50
T2 construct: expressed in transfected cells; host or cells: CHO cells
T2 sequence (P43115 1-390): T1 sequence (P43115 1-390)
Experimental: Biological Example 2: CHO Cell cAMP Assay
This assay monitored the cAMP generation in CHO cells over-expressing the EP3 receptor in the presence or absence of antagonist stimulated with Forskolin (FSK, CAS No. 66428-89-5) and a known EP3 Agonist (sulprostone, CAS No. 60325-46-4). For detection, a homogeneous competitive immunoassay (Time Resolved Fluorescence Energy Transfer (hTR-FRET)) was used.
Cells (6K cells per well) were plated in Poly-D-Lysine coated plates the day before the assay was to be run and were incubated at 37° C. One hour before the assay the media was removed and replaced with assay buffer (500 mL HBSS (+Ca)+2.5 mL 1M HEPES+6.66 mL 7.5% BSA) (starved at 37° C.). At the start of the assay the buffer was removed from the cells and replaced with buffer containing test compound(s). Sulprostone at an EC80 dose (700 nM) and FSK at an EC70 dose (2 μM) were added to initiate the reaction (37° C. for 30 minutes).
FSK increases cAMP production and sulprostone decreases cAMP production produced by FSK. In this assay, EP3 antagonists will increase the cAMP to the level of cAMP generated by FSK alone.
The reaction was terminated with the addition of cAMP detection reagents (labeled cAMP and labeled cAMP antibody in lysis buffer (HTRF reagent, which utilizes a cryptate-labeled anti-cAMP and d2-labeled cAMP-d2 is an HTRF acceptor fluorophore)). Approximately one hour later the plates were read on an Envision (Perkin Elmer) in HTRF mode. Well results were calculated based on a ratio of counts at 665 nm and 615 nm (data output was a calculation of the ratio: (read @665 nm/read @ 615 nm)*1000. For test compounds dosed serially, well results were converted to nM cAMP using a cAMP standard run on each plate. nM cAMP from a set of wells dosed with test compound(s) were plotted. nM cAMP was calculated for each well from a standard curve located on each plate (P1-12 and P13-24) by first calculating the slope and deriving the intercept(b):
[formula] NScAMP_s tan dard_cruve=m(nM cAMP_s tan dard_curve)+b
NSP, NSN, NSsample were converted to nM cAMP using the following equation: […]
IC50 values were determined from a […] (Hill equation) of a single 11-point compound dosing. A best-fit curve was determined by the minimum sum of squares method plotting cAMP produced vs compound concentration.

Row | SMILES | Ki [1] | IC50 [2] | Ki ([1]; unit nM)
1 | COc1ccc(S(=O)(=O)NC(=O)CC/C=C2\CCCc3cnn(Cc4ccc(Cl)cc4Cl)c32)cc1 [Compound #30, (E)-4-(1-(2,4-dichlorobenzyl)-1,4,5,6-tetrahydro-7H-indazol-7-ylidene)-N-((4-methoxyphenyl)sulfonyl)butanamide] | 26 nM | 35 nM | –
2 | O=C(CC/C=C1\CCCc2cnn(Cc3ccc(Cl)cc3Cl)c21)NS(=O)(=O)c1cc2ccccc2s1 [Compound #31, (E)-N-(benzo[b]thiophen-2-ylsulfonyl)-4-(1-(2,4-dichlorobenzyl)-1,4,5,6-tetrahydro-7H-indazol-7-ylidene)butanamide] | 7 nM | 13 nM | –
3 | O=C(NS(=O)(=O)c1ccc(Cl)cc1)OC/C=C1\CCCc2c(C(F)F)nn(Cc3ccc(Cl)cc3Cl)c21 [Compound #32, (E)-2-(1-(2,4-dichlorobenzyl)-3-(difluoromethyl)-1,4,5,6-tetrahydro-7H-indazol-7-ylidene)ethyl ((4-chlorophenyl)sulfonyl)carbamate] | 168 nM | 1300 nM | –
4 | CN(C/C=C1\CCCc2cnn(Cc3ccc(Cl)cc3Cl)c21)C(=O)NS(=O)(=O)c1ccc(Cl)cc1 [Compound #33, (E)-4-chloro-N-((2-(1-(2,4-dichlorobenzyl)-1,4,5,6-tetrahydro-7H-indazol-7-ylidene)ethyl)(methyl)carbamoyl)benzenesulfonamide] | 6 nM | 9 nM | –
5 | O=C(NS(=O)(=O)c1cc(Cl)c(Cl)s1)OC/C(F)=C1\CCCc2cnn(Cc3ccc(Cl)cc3Cl)c21 [Compound #34, (Z)-2-(1-(2,4-dichlorobenzyl)-1,4,5,6-tetrahydro-7H-indazol-7-ylidene)-2-fluoroethyl ((4,5-dichlorothiophen-2-yl)sulfonyl)carbamate] | 3 nM | 11 nM | –
6 | O=C(NS(=O)(=O)c1cc(Cl)c(Cl)s1)OC/C(F)=C1/CCCc2cnn(Cc3ccc(Cl)cc3Cl)c21 [Compound #35, (E)-2-(1-(2,4-dichlorobenzyl)-1,4,5,6-tetrahydro-7H-indazol-7-ylidene)-2-fluoroethyl ((4,5-dichlorothiophen-2-yl)sulfonyl)carbamate] | 542 nM | 2800 nM | –
7 | O=C(NS(=O)(=O)c1ccc(Cl)cc1)OC/C=C1\CC(F)(F)Cc2cnn(Cc3ccc(Cl)cc3Cl)c21 [Compound #37, (E)-2-(1-(2,4-dichlorobenzyl)-5,5-difluoro-1,4,5,6-tetrahydro-7H-indazol-7-ylidene)ethyl ((4-chlorophenyl)sulfonyl)carbamate] | 108 nM | 87 nM | –
8 | COc1ccc(Cl)cc1S(=O)(=O)NC(=O)CC/C=C1\CCCc2cnn(Cc3ccc(Cl)cc3Cl)c21 [Compound #38, (E)-N-((5-chloro-2-methoxyphenyl)sulfonyl)-4-(1-(2,4-dichlorobenzyl)-1,4,5,6-tetrahydro-7H-indazol-7-ylidene)butanamide] | 3 nM | 7 nM | –
9 | COc1ccccc1S(=O)(=O)NC(=O)NC/C=C1\CCCc2cnn(Cc3ccc(Cl)cc3Cl)c21 [Compound #39, (E)-N-((2-(1-(2,4-dichlorobenzyl)-1,4,5,6-tetrahydro-7H-indazol-7-ylidene)ethyl)carbamoyl)-2-methoxybenzenesulfonamide] | 62 nM | 114 nM | –
10 | O=C(NC/C(F)=C1\CCCc2cnn(Cc3ccc(Cl)cc3Cl)c21)NS(=O)(=O)c1cc(Cl)c(Cl)s1 [Compound #40, (Z)-4,5-dichloro-N-((2-(1-(2,4-dichlorobenzyl)-1,4,5,6-tetrahydro-7H-indazol-7-ylidene)-2-fluoroethyl)carbamoyl)thiophene-2-sulfonamide] | 1 nM | 1 nM | –
11 | COc1ccc(Br)cc1S(=O)(=O)NC(=O)CC/C=C1\CCCc2cnn(Cc3ccc(Cl)cc3Cl)c21 [Compound #41, (E)-N-((5-bromo-2-methoxyphenyl)sulfonyl)-4-(1-(2,4-dichlorobenzyl)-1,4,5,6-tetrahydro-7H-indazol-7-ylidene)butanamide] | 6 nM | 9 nM | –
12 | COc1ccc(Br)cc1S(=O)(=O)NC(=O)NC/C=C1\CCCc2cnn(Cc3ccc(Cl)cc3Cl)c21 [Compound #42, (E)-5-bromo-N-((2-(1-(2,4-dichlorobenzyl)-1,4,5,6-tetrahydro-7H-indazol-7-ylidene)ethyl)carbamoyl)-2-methoxybenzenesulfonamide] | 3 nM | 6 nM | –
13 | COc1ccc(Cl)cc1S(=O)(=O)NC(=O)NC/C=C1\CCCc2cnn(Cc3ccc(Cl)cc3Cl)c21 [Compound #43, (E)-5-chloro-N-((2-(1-(2,4-dichlorobenzyl)-1,4,5,6-tetrahydro-7H-indazol-7-ylidene)ethyl)carbamoyl)-2-methoxybenzenesulfonamide] | 3 nM | 8 nM | –
14 | COc1ccccc1S(=O)(=O)NC(=O)CC/C=C1\CCCc2cnn(Cc3ccc(Cl)cc3Cl)c21 [Compound #44, (E)-4-(1-(2,4-dichlorobenzyl)-1,4,5,6-tetrahydro-7H-indazol-7-ylidene)-N-((2-methoxyphenyl)sulfonyl)butanamide] | 95 nM | 177 nM | –
15 | O=C(NC/C(F)=C1/CCCc2cnn(Cc3ccc(Cl)cc3Cl)c21)NS(=O)(=O)c1cc(Cl)c(Cl)s1 [Compound #45, (E)-4,5-dichloro-N-((2-(1-(2,4-dichlorobenzyl)-1,4,5,6-tetrahydro-7H-indazol-7-ylidene)-2-fluoroethyl)carbamoyl)thiophene-2-sulfonamide] | 1300 nM | 6700 nM | –
16 | O=C(NS(=O)(=O)c1cc(Cl)c(Cl)s1)OC/C=C1\COCc2cnn(Cc3ccc(Cl)cc3Cl)c21 [Compound #46, (Z)-2-(1-(2,4-dichlorobenzyl)-1,4-dihydropyrano[4,3-c]pyrazol-7(6H)-ylidene)ethyl ((4,5-dichlorothiophen-2-yl)sulfonyl)carbamate] | 2 nM | 8 nM | –
17 | O=C(NC/C=C1\CCCc2c(C(F)F)nn(Cc3ccc(Cl)cc3Cl)c21)NS(=O)(=O)c1ccc(Cl)cc1 [Compound #47, (E)-4-chloro-N-((2-(1-(2,4-dichlorobenzyl)-3-(difluoromethyl)-1,4,5,6-tetrahydro-7H-indazol-7-ylidene)ethyl)carbamoyl)benzenesulfonamide] | 65 nM | 120 nM | –
18 | O=C(NC/C=C1\CC(F)(F)Cc2cnn(Cc3ccc(Cl)cc3Cl)c21)NS(=O)(=O)c1ccc(Cl)cc1 [Compound #48, (E)-4-chloro-N-((2-(1-(2,4-dichlorobenzyl)-5,5-difluoro-1,4,5,6-tetrahydro-7H-indazol-7-ylidene)ethyl)carbamoyl)benzenesulfonamide] | 5 nM | 14 nM | –
19 | O=C(NC/C=C1\COCc2cnn(Cc3ccc(Cl)cc3Cl)c21)NS(=O)(=O)c1cc(Cl)c(Cl)s1 [Compound #49, (Z)-4,5-dichloro-N-((2-(1-(2,4-dichlorobenzyl)-1,4-dihydropyrano[4,3-c]pyrazol-7(6H)-ylidene)ethyl)carbamoyl)thiophene-2-sulfonamide] | – | 1 nM | 0.4 nM
20 | O=C(NS(=O)(=O)c1ccc(Cl)cc1)OC/C=C1/c2c(cnn2Cc2ccc(Cl)cc2Cl)CCC1F (stereo not drawn) [Compound #50, (Z)-2-(1-(2,4-dichlorobenzyl)-6-fluoro-1,4,5,6-tetrahydro-7H-indazol-7-ylidene)ethyl ((4-chlorophenyl)sulfonyl)carbamate] | 29 nM | 75 nM | –
21 | O=C(NS(=O)(=O)c1ccc(Cl)cc1)OC/C=C1\c2c(cnn2Cc2ccc(Cl)cc2Cl)CCC1F (stereo not drawn) [Compound #51, (E)-2-(1-(2,4-dichlorobenzyl)-6-fluoro-1,4,5,6-tetrahydro-7H-indazol-7-ylidene)ethyl ((4-chlorophenyl)sulfonyl)carbamate] | > 10000 nM | 15700 nM | –
